This is an account of results in US8232107B2, “Methods for measuring the metabolism of neurally derived biomolecules in vivo” (Washington University in St. Louis, priority 2005, dated 2012).

Data set [1] is described as follows: In vivo labeling of Aβ in human CSF, immunoprecipitation-MS/MS, calculation of FSR and FCR. As to the method: Informed consent was obtained from all participants. […] CSF samples were obtained hourly throughout the study.
Aβ metabolic labeling curves of three participants are presented in FIG. 8. ^13C6-labeled leucine was infused through one IV at a rate of 1.9 (circles), 2.5 (triangles), or 2.5 (squares) mg/kg/hr for 12 (circles, triangles) or 9 (squares) hours. Each hour, 10 ml of plasma and 6 ml of CSF were obtained through the other IV and the lumbar catheter, respectively. There was a 5-hour lag time before significant rises in labeled Aβ was detected. This was followed by a 9 (squares) or 12 (triangles or circles) hour increase in labeled Aβ until it plateaued for another 5 hours.
For each hourly sample of CSF collected, the ratio of labeled to unlabeled Aβ was determined by immunoprecipitation-MS/MS, as described above. The MS/MS ions from ^13C6-labeled Aβ17-28 were divided by the MS/MS ions from unlabeled Aβ17-28 to produce a ratio of labeled Aβ to unlabeled Aβ (see TTR formula, above). There was no measurable labeled Aβ for the first 4 hours, followed by an increase from 5 to 13 hours. There was no significant change from 13 to 24 hours. The labeled Aβ decreased from 24 to 36 hours.
[formula] Where (Et2-Et1)Aβ/(t2-t1) is defined as the slope of labeled Aβ during labeling and the Precursor E is the ratio of labeled leucine. FSR, in percent per hour, was operationally defined as the slope of the linear regression from 6 to 15 hours divided by the average of CSF ^13C6-labeled leucine level during infusion (see FIG. 11A-C). For example, a FSR of 7.6% per hour means that 7.6% of total Aβ was produced each hour.
The fractional clearance rate (FCR) was calculated by fitting the slope of the natural logarithm of the clearance portion of the labeled Aβ curve, according to the following formula: […]
The FCR was operationally defined as the natural log of the labeled Aβ from 24 to 36 hours (FIG. 11D-F). For example, a FCR of 8.3% per hour means that 8.3% of total Aβ was cleared each hour. The average FSR of Aβ for these 6 healthy young participants was 7.6%/hr and the average FCR was 8.3%/hr (FIG. 12). These values were not statistically different from each other.

The nature of data set [2]: Measurement of ApoE metabolism in vivo (CSF, WUE4 affinity purification, nanoLC tandem MS). More on the design: species or system human. From the text:
As depicted in FIG. 13, human ApoE was immunoprecipitated from CSF or astrocyte cell culture media using WUE4, a specific anti-human ApoE monoclonal (anti-ApoE) antibody. An immortalized astrocyte cell line from transgenic mice expressing human ApoE was used to produce ^13C6-labeled leucine ApoE standards. Immunoprecipitated ApoE was then digested with sequencing-grade trypsin. Released peptides were separated by nano liquid chromatography and quantitated by tandem mass spectrometry (nanoLC-MS). The efficiency and selectivity of the immuno-affinity purification was confirmed by analyzing the samples following a general proteomics LC-MS method. Results from Bioworks™3.2, using the SEQUEST algorithm, confirmed ApoE was the predominant protein present in samples, and identified the most abundant peptides containing leucines, which could be used for quantitation. Due to the 6 Da mass shift of a ^13C6-labeled leucine, unlabeled peptides were distinguishable from labeled peptides. Tandem MS was performed on the peptides of interest, and the percent of ^13C-leucine incorporated into ApoE was determined by calculating the ratio of labeled product ions to unlabeled product ions. The excellent linearity from 0-25% labeling (R^2=0.99) indicates the method developed to measure ApoE is sensitive, specific, and accurate.
CSF was collected every hour for 36 hours.

The conditions of data set [3]: in vivo, iv, 2 mg/kg. From the text: All human studies were approved by the Washington University Human Studies Committee and the General Clinical Research Center (GCRC) Advisory Committee. Informed consent was obtained from all participants. All participants were screened to be in good general health and without neurologic disease. Seven men and three women (23-45 yrs old) participated. Each research participant was admitted to the GCRC at 7:00 AM after an overnight fast from 8 PM the preceding evening. The GCRC Research Kitchen provided meals (60% carbohydrate, 20% fat, 20% protein, low leucine diet during labeled leucine infusion) at 9 AM, 1 PM, and 6 PM and the participant had free access to water. All food and water consumption was recorded during the admission by nursing staff and the GCRC kitchen. One intravenous catheter was placed in an antecubital vein and used to administer the stable isotope labeled leucine solution. A second intravenous catheter was placed in the contra-lateral antecubital vein to obtain blood samples. A subarachnoid catheter was inserted at the L3-L4 interspace via a Touhy needle, so that CSF could be sampled without performing multiple lumbar punctures (Williams, 2002, Neurology 58: 1859-1860). […]
Every hour, 10 ml of plasma was obtained through the other IV. […] To obtain amino acid sequence and abundance data, these parent ions were subjected to collision induced dissociation (CID 28%), and tandem MS analysis of their doubly-charged species ([M+2H]^+2; m/z 663.6 and 666.6) were scanned in selected reaction monitoring mode (SRM), so that the y- and b-series ions generated were used for isotope ratio quantitation (FIG. 6). […]
Plasma and CSF samples were analyzed to determine the amount of labeled leucine present in each fluid (FIG. 9). The labeled to unlabeled leucine ratios for plasma and CSF ^13C6-leucine were quantified using capillary gas chromatography-mass spectrometry (GC-MS) (Yarasheski et al. 2005, Am J. Physiol. Endocrinol. Metab. 288: E278-284; Yarasheski et al. 1998 Am J. Physiol. 275: E577-583), which is more appropriate than LC-ESI-MS for low mass amino acid analysis.

With “Aβ: amyloid-β protein, CNS derived biomolecule whose metabolism is measured”, the “average fractional synthesis rate (FSR) of Aβ” value in data set [1] (6 healthy young participants) is listed as 7.6 %/hr. For the same compound, in data set [1] (hours 24 to 36, 3 participants), the “average fractional clearance rate (FCR) of Aβ” value is reported as 8.3 %/hr. For the same compound, the “initial period with no measurable labeled Aβ” value in data set [1] (mean of n=6 (FIG. 10)) was 4 h. Further, in data set [1] (three participants (FIG. 8)), the “lag time before significant rises in labeled Aβ” value is 5 h.

With “ApoE: human apolipoprotein E, CNS-derived, purified from CSF”, the “fractional synthesis rate (FSR) of ApoE” value in data set [2] (CSF, young normal controls (FIG. 15 and 16)) is “approximately 2 percent per hour”. For the same compound, the “time in which approximately half of the ApoE pool is synthesized in the human brain” value in data set [2] (from FSR) was “about 24 hours”.

`CC(C)C[C@H](N)C(=O)O` [^13C6-leucine]: in data set [3], the “steady state level of 13C6-leucine in CSF” value is on record as 10%; the “steady state level of 13C6-leucine in plasma” value was found to be 14%; the “time to reach steady state levels in plasma and CSF” value is “within an hour”.
